Measured values as given in US7579371B2, “Methods of using [3.2.0] heterocyclic compounds and analogs thereof” (Nereus Pharmaceuticals, Inc., priority 2004, dated 2009).
Several values for one entry are separate records, joined by “and”; a condition that tells them apart may be missing. Equal entries are not always repeated. Where two headings read alike, the source gives them in different places. Peptide text beside a SMILES is read from it. * marks the point of attachment. Cbz = O=C(OCc1ccccc1)*

Assays:
[1] = biological target: rabbit muscle 20S proteasome, trypsin-like activity (Oryctolagus cuniculus, UniProt G1SWK8); assay: Trypsin-like activity of purified rabbit 20S proteasome (Boc-LRR-AMC)
rabbit muscle 20S proteasome, trypsin-like activity, sequence (G1SWK8 1-271): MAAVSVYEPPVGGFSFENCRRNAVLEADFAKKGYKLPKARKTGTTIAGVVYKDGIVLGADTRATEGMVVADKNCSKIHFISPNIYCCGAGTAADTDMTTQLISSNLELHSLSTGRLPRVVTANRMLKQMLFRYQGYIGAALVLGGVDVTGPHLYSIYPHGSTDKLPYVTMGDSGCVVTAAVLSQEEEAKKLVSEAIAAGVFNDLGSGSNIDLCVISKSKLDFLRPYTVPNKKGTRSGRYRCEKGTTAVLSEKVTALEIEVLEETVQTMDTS

NCI-H292 = assay: Cell growth inhibition assay (resazurin, 48 h); format: cell-based, human; conditions: Homo sapiens, NCI-H292, 48 h
MES-SA/Dx5 = assay: Cell growth inhibition assay (resazurin, 48 h); conditions: for EC50: MES-SA/Dx5, 48 h
Experimental: (§1) Concentrations ranging from 6.32 μM to 2 nM were tested for II-2 and II-4.
The multidrug resistant MES-SA/Dx5 tumor cell line was derived from the human uterine sarcoma MES-SA tumor cell line and expresses elevated P-Glycoprotein (P-gp), an ATP dependent efflux pump.

HL-60/MX2 = assay: Cell growth inhibition assay (resazurin, 48 h); conditions: HL-60/MX2, 48 h
Experimental: The DNA binding agent Mitoxantrone was included as a control, as HL-60/MX2 cells are reported to be resistant to this chemotherapeutic agent (Harker W. G. et al. 1989).
as §1
HL-60/MX2 is a multidrug resistant tumor cell line derived from the human promyelocytic leukemia cell line, HL-60 and expresses reduced topoisomerase II activity. […] Mitoxantrone, the topoisomerase II targeting agent was included as a control.

U266 = assay: Cell growth inhibition assay (resazurin, 48 h); format: cell-based; conditions: Homo sapiens, U-266, 48 h, U266, 48 h; read-out: EC50
NF-κB = assay: NF-κB-mediated luciferase reporter gene assay, HEK293 NF-κB/Luc cells, TNF-α stimulation; format: cell-based; conditions: Homo sapiens, HEK293, 1 hr pretreatment, 6 hours TNF-α; read-out: EC50, NF-κB-mediated luciferase activity
Experimental: The HEK293 NF-κB/luciferase reporter cell line is a derivative of the human embryonic kidney cell line (ATCC; CRL-1573) and carries a luciferase reporter gene under the regulation of 5× NF-κB binding sites. […] When performing the luciferase assay, the DMEM basal medium was replaced with phenol-red free DMEM basal medium and the G418 was omitted.
For NF-κB-mediated luciferase assays, HEK293 NF-κB/luciferase cells were seeded at 1.5×10^4 cells/well in 90 μl phenol-red free DMEM complete medium into Corning 3917 white opaque-bottom tissue culture plates. For Formulae II-2, II-4, II-5A and II-18, a 400 μM starting dilution was made in 100% DMSO and this dilution was used to generate an 8-point half log dilution series. […] For formula II-20, a 2.5 mM or 8 mM starting dilution was made in 100% DMSO and the final test concentrations ranged from 6.3 μM to 2.0 nM or 20 μM to 6.3 nM respectively. The plates were returned to the incubator for 1 hour. After 1 hr pretreatment, 10 μl of a 50 ng/ml TNF-α solution, prepared in the phenol-red free DMEM medium was added, and the plates were incubated for an additional 6 hours.
At the end of the TNF-α stimulation, 100 μl of Steady Lite HTS luciferase reagent (Packard Bioscience) was added to each well and the plates were left undisturbed for 10 min at room temperature before measuring the luciferase activity. The relative luciferase units (RLU) were measured by using a Fusion microplate fluorometer (Packard Bioscience).
NF-κB inducible luciferase activity was measured at 6 hours.

PC-3 = assay: Cell growth inhibition assay (resazurin, 48 h); conditions: Homo sapiens, PC-3, 48 h
[2] = biological target: T1, 20S proteasome chymotrypsin-like activity in PC-3 cells (Homo sapiens, UniProt P28074); assay: Chymotrypsin-like activity of 20S proteasomes in treated PC-3 cells; format: cell-based; conditions: 1 hr
T1 construct: PC-3 (ATCC, CRL-1435), the human prostate cancer cell line; host or cells: PC-3
T1 sequence (P28074 60-263): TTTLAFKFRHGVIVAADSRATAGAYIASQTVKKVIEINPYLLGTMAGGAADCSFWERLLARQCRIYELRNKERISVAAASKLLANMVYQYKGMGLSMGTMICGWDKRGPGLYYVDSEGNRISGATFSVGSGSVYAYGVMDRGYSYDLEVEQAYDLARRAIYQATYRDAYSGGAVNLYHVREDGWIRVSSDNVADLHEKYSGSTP
Experimental: PC-3 (ATCC, CRL-1435), the human prostate cancer cell line, was cultured in F12K medium supplemented with 2 mM L-glutamine, 100 units/ml penicillin, 100 μg/ml streptomycin and 10% heat inactivated fetal bovine serum at 37° C., 5% CO2 and 95% humidified air. […] DMSO was used as the vehicle control at a final concentration of 0.1%. Following 1 hr incubation of PC-3 cells with the compounds, the cells were washed 3× with ice-cold 1× Dulbecco's Phosphate-Buffered Saline (DPBS, Mediatech, Herndon, Va.). […] Cell debris was pelleted by centrifugation at 14,000 rpm for 10 min, 4° C. and supernatants (=cell lysates) were transferred to a new tube. Protein concentration was determined by the BCA protein assay kit (Pierce Biotechnology, Rockford, Ill.). […] The released coumarin (AMC) was measured fluorometrically by using λex=390 nm and λem=460 nm. The assay was performed in a microtiter plate (Corning 3904) and followed kinetically with measurements every five minutes for 2 hr. The total amount of protein used for each assay was 20 μg. The final concentration of Suc-LLVY-AMC and DMSO was 20 μM and 0.2%, respectively. Results are presented as the percent inhibition of the 20S proteasome chymotrypsin-like activity relative to the DMSO control.

RPMI 8226 = assay: Cell growth inhibition assay (resazurin, 48 h); conditions: RPMI 8226
Experimental: RPMI 8226 (CCL-155), HT-29 (HTB-38), and B16-F10 (CRL-6475) cells were purchased from ATCC. RPMI 8226 cells were maintained in RPMI 1640 media supplemented with 10% (v/v) FBS, 2 mM L-glutamine, 1 mM sodium pyruvate and Penicillin/Streptomycin at 100 IU/ml and 100 μg/ml, respectively. HT-29 cells were maintained in McCoys 5A supplemented with 10% (v/v) FBS, 2 mM L-glutamine, 1 mM sodium pyruvate, 1% (v/v) non-essential amino acids, 10 mM HEPES and Penicillin/Streptomycin at 100 IU/ml and 100 μg/ml, respectively. B16-F10 cells were maintained in DMEM supplemented with 10% (v/v) FBS, 2 mM L-glutamine, 10 mM HEPES and Penicillin/Streptomycin at 100 IU/ml and 100 μg/ml, respectively.
RPMI 8226 cells were seeded at 2×10^4 cells/well in 90 μl RPMI media containing 10% (v/v) FBS or 1% (v/v) FBS into 96 well black-walled, clear-bottom tissue culture plates. […] Formulae II-16, II-17 and Formula II-18 were serially diluted in media containing 1% or 10% FBS and added in triplicate to the test wells. […] The final concentration of Formula II-18 ranged from 2 μM to 630 pM.

[3] = biological target: rabbit muscle 20S proteasome, chymotrypsin-like activity (Oryctolagus cuniculus, UniProt G1T4Q9); assay: Chymotrypsin-like activity of purified rabbit muscle 20S proteasome (suc-LLVY-AMC); format: biochemical
rabbit muscle 20S proteasome, chymotrypsin-like activity, sequence (G1T4Q9 1-263): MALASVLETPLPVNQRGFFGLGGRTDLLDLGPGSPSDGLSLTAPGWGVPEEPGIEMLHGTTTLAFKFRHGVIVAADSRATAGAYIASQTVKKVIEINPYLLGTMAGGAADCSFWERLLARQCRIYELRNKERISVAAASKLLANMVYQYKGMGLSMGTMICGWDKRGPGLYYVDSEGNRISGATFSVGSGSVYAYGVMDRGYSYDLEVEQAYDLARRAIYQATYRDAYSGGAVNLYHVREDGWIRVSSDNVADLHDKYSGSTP
Experimental: This peptide substrate is specific for the chymotrypsin-like enzyme activity of the proteasome.
Omuralide was prepared as a 10 mM stock in DMSO and stored in 5 μL aliquots at −80° C. […] The assay measures the hydrolysis of Suc-LLVY-AMC into Suc-LLVY and AMC. The released coumarin (AMC) was measured fluorometrically by using λex=390 nm and λem=460 nm. The assays were performed in a microtiter plate (Corning 3904), and followed kinetically with measurements every five minutes. The instrument used was a Thermo Lab Systems Fluoroskan, with the incubation chamber set to 37° C. The assays were performed according to the manufacturer's protocol, with the following changes. The proteasome was activated as described with SDS, and held on ice prior to the assay. […] Ten microliters of each dose were added in triplicate to the assay plate, and 190 μL of the activated proteasome was added and mixed. The samples were pre-incubated in the Fluoroskan for 5 minutes at 37° C. Substrate was added and the kinetics of AMC were followed for one hour.

Stability in solution = format: physicochemical
Excerpt: Compound VI-1B: UV (Acetonitrile/H2O) λmax 235 (sh) nm; ESMS, m/z 585.2 (M+H)^+.

RAW264.7 cells [4] = conditions: Tang et al., Infect Immun 67:3055 (1999); read-out: EC50 in the LeTx assay; cited from earlier work
RAW264.7 cells [5] = assay: cells; conditions: Mus musculus, RAW264.7, read-out: viability, compound + LeTx

## C[C@@]12OC(=O)[C@]1([C@@H](O)[C@H]1CCC[C@H]3O[C@@H]13)NC(=O)[C@@H]2CCCl (single isomer, unassigned) [Formula II-5A]
[1]
  EC50: 87 nM

## C[C@@]12OC(=O)[C@]1([C@@H](O)C1CCCCC1)NC(=O)[C@@H]2CCCl [Formula II-2]
NCI-H292
  EC50: 395 nM
NCI-H292; read-out: EC50
  EC50: 322 nM
MES-SA/Dx5; Homo sapiens
  EC50: 220 nM
MES-SA/Dx5
  EC50: 138 nM
HL-60/MX2; Homo sapiens, HL60/MX2, 48 h
  EC50: 142 nM

## CC[C@H]1C(=O)N[C@@]2([C@@H](O)C3CCCCC3)C(=O)O[C@@]12C [Formula II-3]
U266
  EC50: > 20000 nM
MES-SA/Dx5; Homo sapiens
  EC50: > 20000 nM
NF-κB
  EC50: > 20000 nM
PC-3
  EC50: > 20000 nM

## C[C@@]12OC(=O)[C@]1([C@@H](O)C1CCCCC1)NC(=O)[C@@H]2CCBr [Formula II-4]
NCI-H292
  EC50: 213 nM
NCI-H292; read-out: EC50
  EC50: 192 nM
U266
  EC50: 39 nM
MES-SA/Dx5; Homo sapiens
  EC50: 178 nM
MES-SA/Dx5
  EC50: 93 nM

## C[C@@]12OC(=O)[C@]1([C@@H](O)[C@H]1CCC[C@@H]3O[C@H]13)NC(=O)[C@@H]2CCCl [Formula II-5B]
[1]
  EC50: 762 nM and 716 nM

## CC[C@H]1C(=O)N[C@@]2([C@@H](O)[C@@H]3C=CCCC3)C(=O)O[C@@]12C [Formula II-17]
[2]; 100 nM
  % inhibition of the chymotrypsin-like activity of 20S proteasomes in PC-3 cell lysates: 26%
[2]; PC-3, read-out: % inhibition of the chymotrypsin-like activity of 20S proteasomes in PC-3 cell lysates, 10 nM
  inhibition at 0.01 µM: 16%
[2]; PC-3, read-out: % inhibition of the chymotrypsin-like activity of 20S proteasomes in PC-3 cell lysates, 100 nM
  inhibition at 0.1 µM: 26%
[2]; PC-3, read-out: % inhibition of the chymotrypsin-like activity of 20S proteasomes in PC-3 cell lysates, 1,000 nM
  inhibition at 1 µM: 49%
[2]; PC-3, read-out: % inhibition of the chymotrypsin-like activity of 20S proteasomes in PC-3 cell lysates, 10,000 nM
  inhibition at 10 µM: 79%

## C[C@@]12OC(=O)[C@]1([C@@H](O)[C@@H]1C=CCCC1)NC(=O)[C@@H]2CCBr [Formula II-18]
RPMI 8226
  % cytotoxicity: 94, 94%

## C[C@@]12OC(=O)[C@]1(C(=O)C1=CC(O)CCC1)NC(=O)[C@]2(C)CCCl (some centres unmarked) [Formula II-31]
[3]
  EC50: > 20000 nM

## C[C@]1(O)[C@@H](CCCl)C(=O)N[C@]1(C(=O)SCC(NC(=O)CCC(N)C(=O)O)C(=O)NCC(=O)O)[C@@H](O)[C@@H]1C=CCCC1 (some centres unmarked) [Formula II-48]
Stability in solution
  stability in solution: unstable in solution

## C[C@@]12OC(=O)[C@]1([C@@H](O)[C@H]1CCC[C@H](Cl)[C@H]1O)NC(=O)[C@@H]2CCCl [Formula IV-3C]
NF-κB
  EC50: > 20000 nM

## CC(=O)N[C@@H](CSC(=O)[C@]1([C@@H](O)C(C)C)NC(=O)[C@H](C)[C@@H]1O)C(=O)O [Lactacystin]
RAW264.7 cells [4]
  EC50: 3000 nM

## CC(C)C[C@@H](C=O)NC(=O)[C@H](CC(C)C)NC(=O)[C@H](CC(C)C)NC(=O)OCc1ccccc1 [MG132] (Cbz-Leu-Leu-Leu-aldehyde)
RAW264.7 cells [4]
  EC50: 3000 nM

## O=C1c2c(O)ccc(O)c2C(=O)c2c(NCCNCCO)ccc(NCCNCCO)c21 [Mitoxantrone]
HL-60/MX2
  EC50: 827 nM and 1340 nM and 1170 nM
HL-60/MX2; Homo sapiens, HL60/MX2, 48 h
  EC50: 1410 nM

## CC(C)[C@H](O)[C@@]12NC(=O)[C@H](C)[C@@H]1OC2=O [Omuralide, reference compound]
[2]; 100 nM
  % inhibition of the chymotrypsin-like activity of 20S proteasomes in PC-3 cell lysates: 36%
RAW264.7 cells [5]
  viability at 1 µM: 37%

## CC(=O)O[C@H]1C(=O)[C@@]2(C)[C@H]([C@H](OC(=O)c3ccccc3)[C@]3(O)C[C@H](OC(=O)[C@H](O)[C@@H](NC(=O)c4ccccc4)c4ccccc4)C(C)=C1C3(C)C)[C@]1(OC(C)=O)CO[C@@H]1C[C@@H]2O [Paclitaxel, reference compound]
MES-SA/Dx5
  % cytotoxicity: 78 ± 1%
